Assay results taken from patent US7718393B2, “Method for determining the efficacy of an anthracycline anticancer agent” (Sysmex Corporation, priority 2006, dated 2010).

Columns and labels:
Assay type in all cases: cell-based, human
MCF-7 = experiment: Cell growth test with or without doxorubicin, MCF-7; conditions: MCF-7, 1 μM doxorubicin, FIG. 3
From the text: (§1) Human breast cancer cells MCF-7, T47-D, SK-B-3, SK-Br-3, MDA-MB-231 and MDA-MB-468 were purchased from American Type Culture Collection (ATCC). 38 cancer cell samples (Nos. 1 to 38) were excised from 38 breast cancer patients with invasive breast cancer classified in stages I to IIIb according to the breast cancer stage classification. The 38 breast cancer patients are those who after removal of cancer tissue, received chemotherapy consisting essentially of administration of anthracycline anticancer agents. Each human breast cancer cell or cancer tissue was proliferated in Eagle's modified minimum essential medium (GIBCO) (hereinafter referred to merely as medium) containing 10% FCS (Commonwealth Laboratories), 1% (v/v) nonessential amino acid (GIBCO), 2 mM L-glutamine (Sigma Chemical), 100 μg/ml streptomycin (GIBCO), 100 U/ml penicillin (GIBCO) and 0.28 μg/ml fungizone (Squib Pharmaceuticals) in a humidified atmosphere of 5% CO2/95% air at 37° C. 3.0×10^3 human breast cancer cells or cancer tissue were inoculated onto a medium in a 96-well plate and cultured for 1 day in a humidified atmosphere of 5% CO2/95% air at 37° C. Thereafter, the medium was exchanged with a medium with or without 1 μM doxorubicin. Cell proliferation after 0, 24, 48 and 72 hours was measured by using a cell proliferation assay kit (Nippon Chemi-Con Corporation) or Cell Titer-Glo Luminescent Cell Viability assay (Promega) in accordance with its manufacturer's instructions.

MDA-MB-231 = experiment: Cell growth test with or without doxorubicin, MDA-MB-231; conditions: MDA-MB-231, 1 μM doxorubicin, FIGS. 6 and 11
From the text: as §1

T47-D = experiment: Cell growth test with or without doxorubicin, T47-D; conditions: 1 μM doxorubicin, FIG. 4
From the text: as §1, with “Thereafter, the medium was exchanged with a medium with or without 1 μM doxorubicin.” left out

SK-Br-3 = experiment: Cell growth test with or without doxorubicin, SK-Br-3; conditions: SK-Br-3, 1 μM doxorubicin, FIGS. 5 and 10
From the text: as §1, with “Thereafter, the medium was exchanged with a medium with or without 1 μM doxorubicin.” left out

MDA-MB-468 = experiment: Cell growth test with or without doxorubicin, MDA-MB-468; conditions: MDA-MB-468, 1 μM doxorubicin, FIGS. 7 and 9
From the text: as §1, with “Thereafter, the medium was exchanged with a medium with or without 1 μM doxorubicin.” left out

MDA-MB-453 = experiment: Cell growth test with or without doxorubicin, MDA-MB-453; conditions: MDA-MB-453, 1 μM doxorubicin, FIG. 8

COc1cccc2c1C(=O)c1c(O)c3c(c(O)c1C2=O)C[C@@](O)(C(=O)CO)C[C@@H]3O[C@H]1C[C@H](N)[C@H](O)[C@H](C)O1 [doxorubicin]
Cell proliferation as compared with the control (MCF-7; 0 to 72 hours): suppressed | Living cells from 0 hour after administration (MCF-7; 0 to 72 hours): hardly changed or are increased | Induction of apotosis (MCF-7): very low | Cell proliferation as compared with the control (MDA-MB-231; 0 to 72 hours): suppressed | Living cells from 0 hour after administration (MDA-MB-231; 0 to 72 hours): hardly changed or are increased | Induction of apotosis (MDA-MB-231): very low | Living cells from 0 hour after administration (T47-D; 0 to 72 hours): gradually decreased with time | Induction of apotosis (T47-D): induced, but the effect thereon can be seen to be lower | Living cells from 0 hour after administration (SK-Br-3; 0 to 72 hours): gradually decreased with time | Induction of apotosis (SK-Br-3; 72 hours): so high that the living cells hardly remain after 72 hours | Living cells from 0 hour after administration (MDA-MB-468; 0 to 72 hours): gradually decreased with time | Induction of apotosis (MDA-MB-468): induced, but the effect thereon can be seen to be lower | Living cells from 0 hour after administration (MDA-MB-453; 0 to 72 hours): gradually decreased with time | Induction of apotosis (MDA-MB-453; 72 hours): so high that the living cells hardly remain after 72 hours
